In patent publication US7608716B2, “Pyrazolonaphthyridine derivative” (Aska Pharmaceutical Co., Ltd., priority 2002, dated 2009):

Legend:
[1] = tested on: actively sensitized guinea pigs; assay: Inhibition of antigen-induced immediate asthmatic response (airway resistance, Konzett-Rossler); assay type: in vivo, Hartley guinea pigs; conditions: Cavia porcellus, oral, 60 minutes prior to antigen-challenge, reduction of increase in airway resistance, read-out: Inhibition of Asthmatic response ED50: mg/kg orally
Procedure: Male Hartley outbred guinea pigs were sensitized by administering intraperitoneally physiological saline (0.5 ml) containing ovalbumin (1 mg, antigen) and 5×10^9 inactivated Bordetella pertussis dead cells (adjuvant). Eleven to thirteen days after the first sensitization, 0.05 ml of an ovalbumin solution (1 mg/ml) (ovalbumin is dissolved in physiological saline) was administered to the lateroabdominal region of each guinea pig intracutaneously. An establishment of sensitization was checked relying on cutaneous reaction. Only guinea pigs wherein significant reddening responses occurred 5 to 10 minutes later were employed in the next measurement test for airway resistance.
The guinea pigs (3 animals per group) actively sensitized in the above step (1) were employed to measure for their airway pressure according to Konzett-Rossler method (Arch. Exp. Path. Pharmakol., 195, 71 (1940)).
Thirteen days after the final sensitization, guinea pigs fasted overnight, and were on the next day anesthetized with a pentobarbital solution (30 mg/1.2 ml/kg, dissolved in physiological saline, intraperitoneal administration). After the guinea pigs were fixed in a supine position, their trachea was incised followed by insertion with one port of a 4-port cannula. Among the remaining 3 ports, 2 ports were connected to an artificial respirator (Model 683, Harvard). The animals were ventilated with 10 ml/kg of air per ventilation at a rate of 60 beats/min via the artificial respirator from the cannula. One port remainder was connected to a respiratory amplifier (AR-601G, Nihon Kohden, Japan) via an airflow resistance tube (TV-241T, Nihon Kohden, Japan) and a differential pressure transducer (TP-602T, Nihon Kohden, Japan) connected with a control box (RY-111S, Nihon Kohden, Japan). From a catheter inserted into a left carotid artery, blood pressures were monitored with a blood pressure measurement unit (AP641G, NEC Corp., Japan) via a blood pressure transducer (TP-300T, Nihon Kohden, Japan), and heart rates were recorded on a thermal recorder (WT-685G, Nihon Kohden, Japan), relying on blood pressure pulse waves after being led to a cardiograph unit (AT601G, Nihon Kohden, Japan).
After airway pressure became stable, an ovalbumin solution (1 mg/ml, dissolved in physiological saline) was administered at a dose of 1 ml/kg via a tube with which the right jugular vein of guinea pigs was cannulated.
Each test compound was suspended in 0.5% CMC-Na solution and administered orally with an oral sound at a dose of 0.03 to 20 mg/2 ml/kg 60 minutes prior to the antigen-challenge. Control groups received only 0.5% CMC-Na solution in an equivalent amount. The pentobarbital-anesthetization and tracheal incision were conducted 30 minutes prior to the antigen-challenge.
Each percent reduction of increase in airway resistance (each test compound-administered group versus control group) was calculated according to the equation given below. ED50 was obtained by Probit method.

TNF-α production = assay: Inhibition of TNF-α production in galactosamine- and LPS-stimulation; assay type: in vivo; conditions: Mus musculus; C3H/HeN mice, oral, 1 hour before galactosamine/LPS i.v.; serum TNF-α by ELISA 1 hour later; read-out: Inhibition of TNF-α production ED50: mg/kg orally
Procedure: A suspension of each test compound in 0.5% CMC-Na solution was administered orally to C3H/HeN mice at a dose of 0.10 to 10 mg/kg. One hour later, the animals received intravenously galactosamine at a dose of 800 mg/kg and LPS at a dose 5 μg/kg to raise the induction of TNF-α production. One hour later after the galactosamine- and LPS-administration, amounts of TNF-α in serum samples were measured by ELISA, and ED50 was obtained. Roflumilast and SB207499 were used for the reference compounds in this assay.

CYP3A4 = biological target: T1, CYP3A4 (Homo sapiens, UniProt P08684); assay: Inhibition of drug-metabolizing enzyme CYP3A4 (CYP3A4/BFC kit); assay type: in vitro ADME; conditions: CYP3A4-expressing microsomes, BFC substrate, 37° C., 30 minutes; read-out: Inhibition of Drug-Metabolizing Enzymes (IC50; μM) CYP3A4
T1 construct: purchased BD Biosciences, NJ, USA; host or cells: CYP3A4-expressing system microsomes
Procedure: The inhibitory effect on CYP2D6 and CYP3A4 was determined using High Throughput Inhibitor Screening Kits: CYP2D6/AMMC and CYP3A4/BFC (both from BD Biosciences, NJ, USA). Briefly, each of NADPH regenerating systems, cofactors, and test compounds was dispensed into 96-well plates, followed by addition of each of fluorescent substrates, AMMC (CYP2D6) or BFC (CYP3A4). To each well were added CYP2D6-expressing system microsomes or CYP3A4-expressing system microsomes, and the plates were incubated at 37° C. for 30 minutes, and then read for fluorescent signals (CYP2D6: ex=390 nm, em=460 nm; CYP3A4: ex=409 nm, em=538 nm wherein excitation wavelength: ex and emission wavelength: em). Thus, each inhibitory efficacy on enzymes CYP2D6 and CYP3A4 was determined. Roflumilast was used for the reference compound in this assay.

ICR mice = assay: Toxicology study (1-week administration to mice); assay type: in vivo; conditions: oral, 100 or 300 mg/10 ml/kg, one week
Procedure: The Compound of the present invention (Example No. 9) was administered orally to ICR mice (5 animals per group) as a test compound. […] The test compound was suspended in 0.5% CMC-Na solution and given orally to the animal at a dose of 100 or 300 mg/10 ml/kg in a forced manner.

Beagle dogs = assay: Emetic action on dogs; assay type: in vivo; conditions: oral, 1 mg/kg
Procedure: Beagle dogs received a suspension of each test compound in 0.5% CMC-Na solution orally at a dose of 1 mg/2 mL/kg.

T1 sequence (P08684 whole entry): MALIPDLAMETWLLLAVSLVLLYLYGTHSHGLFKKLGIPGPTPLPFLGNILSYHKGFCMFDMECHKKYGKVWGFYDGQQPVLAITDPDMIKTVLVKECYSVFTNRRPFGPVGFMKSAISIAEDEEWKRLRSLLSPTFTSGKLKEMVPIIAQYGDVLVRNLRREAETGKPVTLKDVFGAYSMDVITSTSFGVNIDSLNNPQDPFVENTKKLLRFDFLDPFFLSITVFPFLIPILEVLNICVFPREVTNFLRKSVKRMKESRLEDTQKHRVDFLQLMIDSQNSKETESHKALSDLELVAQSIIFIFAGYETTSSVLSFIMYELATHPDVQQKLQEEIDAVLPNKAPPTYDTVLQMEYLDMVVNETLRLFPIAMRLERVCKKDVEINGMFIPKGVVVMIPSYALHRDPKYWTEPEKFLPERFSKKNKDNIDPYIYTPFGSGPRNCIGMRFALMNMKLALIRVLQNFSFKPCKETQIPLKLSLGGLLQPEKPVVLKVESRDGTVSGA

Structure (SMILES) | ED50 [1] [mg/kg] | ED50 (TNF-α production) [mg/kg] | IC50 (CYP3A4) [µM] | Abnormality in other parameters (ICR mice) | Body weight gain (ICR mice) | Mortality (ICR mice) | Occurrence of emesis (Beagle dogs)
O=c1c2c(Cc3ccccc3)n[nH]c2c2cccnc2n1-c1ccccc1 [Example No. 9, 3-benzyl-5-phenyl-1H-pyrazolo[4,3-c][1,8]naphthyridin-4 (5H)-one] | 0.16 | 0.22 | 8.5 | no abnormality was observed | No reduction of body weight gains was observed | None of the animals were died | no observation for emetic actions
O=c1c2c(Cc3ccc(F)cc3)n[nH]c2c2cccnc2n1-c1ccccc1 [Example No. 33, 3-(4-fluorobenzyl)-5-phenyl-1H-pyrazolo[4,3-c][1,8]naphthyridin-4 (5H)-one] | 0.33 | 0.1 | 6.2 |  |  |  | no observation for emetic actions
